Source: patent US20190177279A1, “CARBOXYLIC ACID AROMATIC 1,2-CYCLOPROPYLAMIDES” (Bayer Pharma Aktiengesellschaft, priority 2017, published 2019)
Read-outs that look alike come from different tables or passages of the source.

Target: T1, human B1 receptor (Homo sapiens, UniProt P46663)
T1 construct: host or cells: CHO-K1
T1 sequence (P46663 1-353): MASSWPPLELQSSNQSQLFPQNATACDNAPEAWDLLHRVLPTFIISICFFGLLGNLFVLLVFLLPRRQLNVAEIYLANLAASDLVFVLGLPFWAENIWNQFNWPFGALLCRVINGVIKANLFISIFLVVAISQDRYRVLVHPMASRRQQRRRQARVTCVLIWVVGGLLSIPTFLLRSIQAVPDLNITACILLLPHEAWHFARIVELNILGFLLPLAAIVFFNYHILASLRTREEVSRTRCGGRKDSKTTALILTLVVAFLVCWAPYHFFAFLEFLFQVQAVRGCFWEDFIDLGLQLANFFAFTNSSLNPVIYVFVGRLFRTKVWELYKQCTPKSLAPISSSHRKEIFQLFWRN
Test: Calcium flux assay (FLIPR) with recombinant CHO-K1 cells expressing human B1 receptor
Format: cell-based
Conditions: agonist Lys-(Des-Arg)-Bradykinin
Description: The potency to inhibit the Bradykinin B1 receptors was determined for the example compounds of this invention in a cell-based fluorescent calcium-mobilisation assay. The assay measures the ability of example compounds to inhibit Bradykinin B1 receptor agonist-induced increase of intracellular free Ca^2+ in the cell line expressing B1 receptor. Specifically, calcium indicator—loaded cells are pre-incubated in the absence or presence of different concentrations of example compounds followed by the stimulation with a selective B1 receptor agonist peptide. The change of the intracellular Ca^2+ concentration is monitored with a fluorescent plate reader FLIPR (Molecular Devices).
Calcium flux Assay (FLIPR) with recombinant cells for Bradykinin B1 receptor antagonist, either in the presence (hB1 IC50) or absence (hB1 free IC50) of 0.1% BSA in assay buffer
CHO-K1 cell line expressing human B1 receptor was purchased from Euroscreen (Gosselies, Belgium, with reference name hB1-D1). The cells were grown in Nutrient Mixture Ham's F12 (Sigma) containing 10% Foetal bovine serum (Sigma) and 400 μg/mL G418 (Sigma), 5 μg/mL puromycin (Sigma).
For the calcium flux assay, 80% confluent cells were detached from the culture vessels with Versene (Gibco), and seeded into 384-well plates (Cell binding Surface; Corning, N.Y.; #3683) at a density of 15,000 cells per well. Cells were seeded in a volume of 50 μL in medium without antibiotics and incubated overnight in a humidified atmosphere with 5% CO2 at 37° C. […] The calcium indicator loaded cells were incubated at 37° C. for 2 hrs. Extracellular dye was then removed and each well was filled with 45 μL of assay buffer. Cell plates were kept in dark until used. Example compounds were assayed at 8 concentrations in triplicate. Serial 10-fold dilutions in 100% DMSO were made at a 100-times higher concentration than the final concentration, and then diluted 1:10 in assay buffer. 5 μL of each diluted compound was added to the well of cell plates (yielding final concentration with 1% DMSO), and incubated for 30 min at 28° C. before the addition of B1 receptor agonist on the FLIPR instrument.
Agonist plates contained the agonist Lys-(Des-Arg)-Bradykinin (Bachem, Brackley) at 3.5×EC90 in assay buffer with 1% DMSO. The addition of agonist 20 μl per well to the assay plate was carried out on the FLIPR instrument while continuously monitoring Ca^2+-dependent fluorescence at 538 nm. A peptide antagonist Lys-(Des-Arg-Leu)-Bradykinin (Bachem, Brackley) at 20 µM was used to determine the full inhibition as control.
Peak fluorescence was used to determine the response to agonist obtained at each concentration of example compound by the following equation:
% Response=100*(RFU(example compound)−RFU(control)/(RFU(DMSO)−RFU(control)) • Control=full inhibition by the peptide antagonist Lys-(Des-Arg-Leu)-Bradykinin at 20 μM
The response values were plotted against the logarithm of the compound concentrations. The compounds were tested in triplicates per plate and mean values were plotted in Excel XLfit to determine IC50 values, percentage of maximal inhibition and the Hill slopes.

IC50 (absence of 0.1% BSA in assay buffer, read-out: hB1 free IC50): 0.022 µM | IC50 (presence of 0.1% BSA in assay buffer, read-out: hB1 IC50): 0.078 µM
Structure (SMILES): O=C(O)c1cc(NC(=O)C2CC2c2ccc(Cl)cc2)cc(F)c1-c1cnn(C2CCC2)c1 (racemic) [Example 2, 5-({[2-(4-chlorophenyl)cyclopropyl]carbonyl}amino)-2-(1-cyclobutyl-1H-pyrazol-4-yl)-3-fluorobenzoic acid]
